Results as given in patent US20250179509A1, “NATIVE DELIVERY OF BIOMOLECULES INTO PLANT CELLS USING IONIC COMPLEXES WITH CELL-PENETRATING PEPTIDES” (BASF Plant Science Company GmbH, priority 2018, published 2025).

How the values were obtained:
[1] = tested on: 5-day callus cell; assay: Western blot quantification of Citrine extracted from rice callus; assay type: cell-based, Oryza sativa, cv. Nipponbare; conditions: 72-hour post-infiltration, with vacuum and pressure treatment, area intensity compared with positive control
Procedure: (§1) 10 mg rice callus (5-day or 21-day) was immersed in 100 μL of fresh prepared complex solutions in a screw cap tube. Subsequently depressurized the solution at −0.08 MPa for 1 min and compressed at +0.08 MPa for 1 min. After this treatment, the callus was transferred onto the N6D medium, and incubated at 30° C. in the dark until use.
Confocal laser scanning microscopy (CLSM, ZeissLSM 700, Carl Zeiss, Oberkochen, Germany) was used to evaluate the intracellular uptake of CPP-FP-Citrine every 24 hours. Before the observation by CLSM, the callus on N6D was transferred into a 1.5 mL Eppendorf tube and washed thoroughly with Milli-q water contains 0.1% tween 20 for five times to remove the Citrine on cell surface. […] CPP-FP-Citrine was detected by setting the excitation at 488 nm and emission in a range of 505-600 nm. For distinguish plasma membrane region and cytoplasm region, the callus was additionally incubated with FM4-64 (20 µM, 20 min at RT) for cell membrane stain, and detected by setting the excitation at 405 nm and emission at 560-700. Furthermore, quantification of the intracellular Citrine by western blot immunoassay. […]
We next quantified the Citrine from the cell extraction by western blot. […] As controls, the samples with infiltration of Milli-q water and Citrine only without vacuum and pressure treatment were also analyzed (FIG. 7a). […]

[2] = tested on: rice callus cells; assay: CLSM observation of intracellular uptake and distribution of Citrine after vacuum/pressure infiltration; assay type: cell-based, Oryza sativa, cv. Nipponbare; conditions: for distribution of Citrine in callus cell: 5-day callus cell, 72-hours incubation, FM 4-64 stain, 3D images and optical sections
Procedure: Mature dry seeds of Oryza sativa, cv. Nipponbare (O. sativa) were surface-sterilized with 70% ethanol (v/v) for 1 min, followed by 30 min in 50% (v/v) commercial bleach with rotation at 20 rpm. Seeds were then washed 8-10 times with sterile distilled water and dried on autoclaved Kimwipes (3 mm) for 5 min. For callus induction, sixteen seeds were inoculated petri plate on callus induction medium (N6D) and incubated at 30° C. with continuous light in a plant bio-incubator (TOMY CLE-303 cultivation chamber Tokyo, Japan). N6D was prepared using basal 30 g/L […], 0.3 g/L casamino acid, 2.8 g/L L-proline, 2 mg/L 2,4-dichlorophenoxyacetic acid (2,4-D), 4.0 g/L CHO (N6) basal salt mix, gelled with 4 g/L phytagel and pH adjusted to 5.8 before autoclaving. After 5-day cultivation, the callus was cut into approximately four equal parts. This callus was used as the 5-day callus in this work. On the other hand, after 21-day cultivation, the self-shedding callus was collected and used as the 21-day callus. For the callus regeneration test, the callus was cut to small pieces in different sizes, then transferred onto a regeneration medium and incubated at 30° C. with continuous light for 7 days. […] The regeneration medium was prepared based on using 4 g/L MS powder with vitamin, supplied with 30 g/L sorbitol, 30 g/L sucrose, 4 g/L casamino acid, 2 mg/L 2,4-D and 2 mg/L 1-Naphthaleneacetic acid (NAA), gelled with 4 g/L phytagel and pH was adjusted to 5.8 before autoclaving. The chemicals used in this research are purchased from Sigma (Sigma-Aldrich, MO, USA) and Wako (Wako, Pure Chemical, Tokyo, Japan).
as §1
Confocal laser scanning microscopy (CLSM, ZeissLSM 700, Carl Zeiss, Oberkochen, Germany) was used to evaluate the intracellular uptake of CPP-FP-Citrine every 24 hours. Before the observation by CLSM, the callus on N6D was transferred into a 1.5 mL Eppendorf tube and washed thoroughly with Milli-q water contains 0.1% tween 20 for five times to remove the Citrine on cell surface. Thereafter, the callus was cut into tiny pieces and mounted on glass slides, then covered with coverslips. CPP-FP-Citrine was detected by setting the excitation at 488 nm and emission in a range of 505-600 nm. For distinguish plasma membrane region and cytoplasm region, the callus was additionally incubated with FM4-64 (20 µM, 20 min at RT) for cell membrane stain, and detected by setting the excitation at 405 nm and emission at 560-700. Furthermore, quantification of the intracellular Citrine by western blot immunoassay. After 72-hour post-infiltration, the protein was extracted from rice callus. The rice callus was frozen with liquid nitrogen, and then grinding in a mortar into powder. 50 μl of 10 mM Tris-HCL buffer (pH 7.4) containing 10 μL Halt protease inhibitor cocktail (Thermo Scientific, MA, USA) was added to 0.1 g callus powder, mixed well and incubated on ice for 1 hour. After centrifuge at […], 4° C. for 20 min, the supernatant was collected and used as the cell extraction. 10 μL of the cell extraction was subjected to a 4-20% sodium dodecyl sulfate polyacrylamide electrophoresis gels (SDS-PAGE, Bio-Rad, California, USA). Proteins were then transferred onto a PVDF membranes (Bio-Rad, California, USA) using a semi-dry transfer cell (Bio-Rad, California, USA) at 10 V for 1 hour. The immunodetection of Citrine was performed with a rabbit polyclonal antibody (GFP antibody NB600-308, Novus Biologicals, Co, USA, dilution to 1:2000). IgG goat anti-rabbit antibody conjugated with horse radish peroxidase was used as a secondary antibody (goat anti-rabbit IgG H&L HRP ab6789, Abcam, Cambridge, UK, dilution to 1:20000). […]

[3] = tested on: rice callus; assay: Delivery of dsRed plasmid DNA into rice callus and dsRed expression; assay type: cell-based; conditions: dsRed plasmid DNA (SEQ ID NO: 1) combined with peptide, after 4 days
Procedure: CPP (BP100 KH9) and dsRed plasmid DNA (Seq ID NO: 1) or Cy3 labelled PNA (peptide nucleic acid) (1:10 molar ratio) were mixed together and incubated for 30 minutes at 4° C. After incubation the volume was made up to 100 μl with water.
Callus from 5-7 days old rice seeds were used for the experiments. To 10 mg of callus, CPP/DNA or CPP/PNA mixture was added and vacuum infiltrated for 15 mins, washed with distilled water and plated on N6 medium.

[4] = Secondary structure contents of peptides (DichroWeb analysis); assay type: physicochemical; conditions: various solvents, reducing or non-reducing conditions
Procedure: FIG. 20: Secondary structure contents of BPCH7, BPLH7, and BPKH in various solvents (reducing or non-reducing conditions). Analysis was performed using DichroWeb (CONTIN, dataset 4).

[5] = tested on: rice cells; assay: Delivery of DNA into rice cells by linear versus cyclic peptide; assay type: cell-based
Procedure: BP2 is a cyclic peptide due to its disulphide bond between the two cysteins. This structure improve binding to proteins, peptides and DNA and improves cell survival (reduced cell toxicity) and regeneration. These advantages of the cyclic structure were analysed by studying a linear, non-cyclic, version of BP2 with regards to its potential to delivery.

Sequence	Citrine delivered [1] [ng/mg callus]	distribution of Citrine in callus cell [2]	Citrine fluorescence inside of the cells observed, time after infiltration ([2]; 5-day callus cells, P/C ratio of 1) [h]	Citrine fluorescence inside of the cells first observed, time after infiltration ([2]; 5-day callus cells, P/C ratio of 10) [h]	Citrine florescence observed, time after infiltration ([2]; 21-day rice callus, P/C ratio of 10) [h]	dsRed expression (red fluorescence) [3]	secondary structure [4]	activity in delivery DNA into rice cells [5]	Citrine fluorescence inside of the cells observed, time after infiltration ([2]; 5-day callus cells, P/C ratio of 100) [h]	secondary structure ([4]; listed as BP2)
KKLFKKILKYLKHKHKHKHKHKHKHKHKH (BP1 amino acid sequence, synthetic) [BP100 (KH)9]	0.042	located in cell membrane and the cytoplasm regions of the cells	72	48	48	visible red fluorescence	higher helix and strand order			
KKLFKKILKYLHHCRGHTVHSHHHCIR [LH7, linear, non-cyclic version of BP2, reference compound]							higher degree of unordered structure	significantly lower activity		
KKLFKKILKYLHHCRGHTVHSHHHCIR (BP2 amino acid sequence, synthetic) [BP100CH7]	0.043	located in cell membrane and the cytoplasm regions of the cells							72	higher helix and strand order
